Measured values published in PubChem BioAssay AID2060605 (Molecular Pharmacology Branch, DTP, NCI, 2025).
pIC50: −log10 of the molar value.

Test system: 947758-054-R-J2-PDC spheroid growth, percent test/control
Test: Anticancer human tumor 947758-054-R-J2-PDC patient-derived colon adenocarcinoma cell line growth inhibition [CLK]
Conditions: spheroids with HUVEC and MSC; for pIC50: curve of first compound; for viability, T/C: stronger effect = lower value
Summary of the method: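 Patient-derived tumor cells grown as complex spheroids with HUVEC endothelial cells and mesenchymal stem cells, treated with drug combinations. Concentrations descend in half-log steps from near clinical Cmax, or from 10 microM if Cmax unknown.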

[1] = second compound 0.0316 µM, first compound 0.00316 µM
[2] = second compound 0.0316 µM, first compound 0.01 µM
[3] = second compound 0.0316 µM, first compound 0.0316 µM
[4] = second compound 0.0316 µM, first compound 0.1 µM
[5] = second compound 0.0316 µM, first compound 0.316 µM
[6] = second compound 0.0316 µM, first compound 1 µM
[7] = second compound 0.1 µM, first compound 0.00316 µM
[8] = second compound 0.1 µM, first compound 0.01 µM
[9] = second compound 0.1 µM, first compound 0.0316 µM
[10] = second compound 0.1 µM, first compound 0.1 µM
[11] = second compound 0.1 µM, first compound 0.316 µM
[12] = second compound 0.1 µM, first compound 1 µM
[13] = second compound 0.316 µM, first compound 0.00316 µM
[14] = second compound 0.316 µM, first compound 0.01 µM
[15] = second compound 0.316 µM, first compound 0.0316 µM
[16] = second compound 0.316 µM, first compound 0.1 µM
[17] = second compound 0.316 µM, first compound 0.316 µM
[18] = second compound 0.316 µM, first compound 1 µM
[19] = second compound 1 µM, first compound 0.00316 µM
[20] = second compound 1 µM, first compound 0.01 µM
[21] = second compound 1 µM, first compound 0.0316 µM
[22] = second compound 1 µM, first compound 0.1 µM
[23] = second compound 1 µM, first compound 0.316 µM
[24] = second compound 1 µM, first compound 1 µM
[25] = second compound 3.16 µM, first compound 0.00316 µM
[26] = second compound 3.16 µM, first compound 0.01 µM
[27] = second compound 3.16 µM, first compound 0.0316 µM
[28] = second compound 3.16 µM, first compound 0.1 µM
[29] = second compound 3.16 µM, first compound 0.316 µM
[30] = second compound 3.16 µM, first compound 1 µM
[31] = second compound 10 µM, first compound 0.00316 µM
[32] = second compound 10 µM, first compound 0.01 µM
[33] = second compound 10 µM, first compound 0.0316 µM
[34] = second compound 10 µM, first compound 0.1 µM
[35] = second compound 10 µM, first compound 0.316 µM
[36] = second compound 10 µM, first compound 1 µM
[37] = second compound 0.0316 µM, first compound 3.16 µM
[38] = second compound 0.0316 µM, first compound 10 µM
[39] = second compound 0.1 µM, first compound 3.16 µM
[40] = second compound 0.1 µM, first compound 10 µM
[41] = second compound 0.316 µM, first compound 3.16 µM
[42] = second compound 0.316 µM, first compound 10 µM
[43] = second compound 1 µM, first compound 3.16 µM
[44] = second compound 1 µM, first compound 10 µM
[45] = second compound 3.16 µM, first compound 3.16 µM
[46] = second compound 3.16 µM, first compound 10 µM
[47] = second compound 10 µM, first compound 3.16 µM
[48] = second compound 10 µM, first compound 10 µM
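Note: spheroids exposed to compounds for one week before readout.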
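Throughout, for viability, T/C: 100% = DMSO vehicle control wells.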

`CCc1c2c(nc3ccc(O)cc13)-c1cc3c(c(=O)n1C2)COC(=O)[C@]3(O)CC` + CNC(=O)c1ccc(Nc2nc(OC3CCCC3)c3c(-c4ccc5nc(C)oc5c4)c[nH]c3n2)c(OC)c1 gave a pIC50 (second compound 0.0316 µM) of over 8.50, a pIC50 (second compound 0.1 µM) of 8.34 and a pIC50 (second compound 0.316 µM) of over 8.50. It also gave a pIC50 (second compound 1 µM) of over 8.50, a pIC50 (second compound 3.16 µM) of over 8.50 and a pIC50 (second compound 10 µM) of over 8.50. The viability, T/C [1] was 45.2%, the viability, T/C [2] was 30.2% and the viability, T/C [3] was 23.5%. For the same compound, the viability, T/C [4] was 17.9%, the viability, T/C [5] was 8.37% and the viability, T/C [6] was 1.73%. It also gave a viability, T/C [7] of 59.9%, a viability, T/C [8] of 28.5% and a viability, T/C [9] of 18.2%. For the same compound, the viability, T/C [10] was 16.5%, the viability, T/C [11] was 8.07% and the viability, T/C [12] was 3%. For the same compound, the viability, T/C [13] was 34.3%, the viability, T/C [14] was 29.1% and the viability, T/C [15] was 16.8%. For the same compound, the viability, T/C [16] was 13.8%, the viability, T/C [17] was 6.27% and the viability, T/C [18] was 1.02%. It also gave a viability, T/C [19] of 34%, a viability, T/C [20] of 20.6% and a viability, T/C [21] of 10.7%. It also gave a viability, T/C [22] of 8.46%, a viability, T/C [23] of 2.97% and a viability, T/C [24] of 0.31%. For the same compound, the viability, T/C [25] was 31.6%, the viability, T/C [26] was 16.2% and the viability, T/C [27] was 12.2%. The viability, T/C [28] was 6.75%, the viability, T/C [29] was 4.2% and the viability, T/C [30] was 0.54%. The viability, T/C [31] was 29.3%, the viability, T/C [32] was 19.5% and the viability, T/C [33] was 11.5%. It also gave a viability, T/C [34] of 5.96%, a viability, T/C [35] of 2.11% and a viability, T/C [36] of 0.68%.

`Cn1ncnc1[C@H]1c2n[nH]c(=O)c3cc(F)cc(c23)N[C@@H]1c1ccc(F)cc1` + CNC(=O)c1ccc(Nc2nc(OC3CCCC3)c3c(-c4ccc5nc(C)oc5c4)c[nH]c3n2)c(OC)c1 gave a pIC50 (second compound 0.0316 µM) of under 7.00, a pIC50 (second compound 0.1 µM) of under 7.00 and a pIC50 (second compound 0.316 µM) of 7.44. The pIC50 (second compound 1 µM) was over 9.50, the pIC50 (second compound 3.16 µM) was over 9.50 and the pIC50 (second compound 10 µM) was over 9.50. For the same compound, the viability, T/C (second compound 0.0316 µM, first compound 0.000316 µM) was 78.7%, the viability, T/C (second compound 0.0316 µM, first compound 0.001 µM) was 102% and the viability, T/C [1] was 84.3%. For the same compound, the viability, T/C [2] was 96.9%, the viability, T/C [3] was 90.4% and the viability, T/C [4] was 82.6%. It also gave a viability, T/C (second compound 0.1 µM, first compound 0.000316 µM) of 96.5%, a viability, T/C (second compound 0.1 µM, first compound 0.001 µM) of 88.6% and a viability, T/C [7] of 81.3%. For the same compound, the viability, T/C [8] was 90.8%, the viability, T/C [9] was 84.8% and the viability, T/C [10] was 58.9%. It also gave a viability, T/C (second compound 0.316 µM, first compound 0.000316 µM) of 69.7%, a viability, T/C (second compound 0.316 µM, first compound 0.001 µM) of 65% and a viability, T/C [13] of 70.4%. For the same compound, the viability, T/C [14] was 77.9%, the viability, T/C [15] was 51.4% and the viability, T/C [16] was 40.5%. For the same compound, the viability, T/C (second compound 1 µM, first compound 0.000316 µM) was 46.1%, the viability, T/C (second compound 1 µM, first compound 0.001 µM) was 45.1% and the viability, T/C [19] was 42.3%. The viability, T/C [20] was 49.3%, the viability, T/C [21] was 46% and the viability, T/C [22] was 24.6%. For the same compound, the viability, T/C (second compound 3.16 µM, first compound 0.000316 µM) was 38.9%, the viability, T/C (second compound 3.16 µM, first compound 0.001 µM) was 31.4% and the viability, T/C [25] was 38.4%. It also gave a viability, T/C [26] of 42.6%, a viability, T/C [27] of 38.6% and a viability, T/C [28] of 28.7%. It also gave a viability, T/C (second compound 10 µM, first compound 0.000316 µM) of 33.4%, a viability, T/C (second compound 10 µM, first compound 0.001 µM) of 31.8% and a viability, T/C [31] of 32.9%. For the same compound, the viability, T/C [32] was 48%, the viability, T/C [33] was 28.9% and the viability, T/C [34] was 26.8%.

With `Nc1ccn(C2OC(CO)C(O)C2(F)F)c(=O)n1` (stereo not drawn) + CNC(=O)c1ccc(Nc2nc(OC3CCCC3)c3c(-c4ccc5nc(C)oc5c4)c[nH]c3n2)c(OC)c1 the pIC50 (second compound 0.0316 µM) was over 7.50, the pIC50 (second compound 0.1 µM) was over 7.50 and the pIC50 (second compound 0.316 µM) was over 7.50. It also gave a pIC50 (second compound 1 µM) of over 7.50, a pIC50 (second compound 3.16 µM) of over 7.50 and a pIC50 (second compound 10 µM) of over 7.50. For the same compound, the viability, T/C [3] was 21.3%, the viability, T/C [4] was 9.39% and the viability, T/C [5] was 10.4%. The viability, T/C [6] was 12.7%, the viability, T/C [37] was 10.1% and the viability, T/C [38] was 7.91%. It also gave a viability, T/C [9] of 25.7%, a viability, T/C [10] of 7.76% and a viability, T/C [11] of 9.74%. For the same compound, the viability, T/C [12] was 9.84%, the viability, T/C [39] was 9.52% and the viability, T/C [40] was 7.25%. For the same compound, the viability, T/C [15] was 25.4%, the viability, T/C [16] was 8.69% and the viability, T/C [17] was 7.46%. The viability, T/C [18] was 11.1%, the viability, T/C [41] was 8.56% and the viability, T/C [42] was 6.75%. It also gave a viability, T/C [21] of 29.1%, a viability, T/C [22] of 8.29% and a viability, T/C [23] of 5.33%. For the same compound, the viability, T/C [24] was 7.16%, the viability, T/C [43] was 6.13% and the viability, T/C [44] was 8.82%. For the same compound, the viability, T/C [27] was 19.2%, the viability, T/C [28] was 6.89% and the viability, T/C [29] was 6.64%. The viability, T/C [30] was 7.3%, the viability, T/C [45] was 6.33% and the viability, T/C [46] was 4.72%. It also gave a viability, T/C [33] of 18.2%, a viability, T/C [34] of 9.83% and a viability, T/C [35] of 3.87%. It also gave a viability, T/C [36] of 5.96%, a viability, T/C [47] of 4.8% and a viability, T/C [48] of 3.11%.

`O=c1[nH]cc(F)c(=O)[nH]1` + CNC(=O)c1ccc(Nc2nc(OC3CCCC3)c3c(-c4ccc5nc(C)oc5c4)c[nH]c3n2)c(OC)c1 was tested, and the pIC50 (second compound 0.0316 µM) was 6.01, the pIC50 (second compound 0.1 µM) was 6.05 and the pIC50 (second compound 0.316 µM) was 6.25. For the same compound, the pIC50 (second compound 1 µM) was over 7.50, the pIC50 (second compound 3.16 µM) was over 7.50 and the pIC50 (second compound 10 µM) was over 7.50. The viability, T/C [3] was 97.2%, the viability, T/C [4] was 85.4% and the viability, T/C [5] was 84.2%. The viability, T/C [6] was 47.2%, the viability, T/C [37] was 38.4% and the viability, T/C [38] was 28%. It also gave a viability, T/C [9] of 81.3%, a viability, T/C [10] of 79.1% and a viability, T/C [11] of 88%. For the same compound, the viability, T/C [12] was 46.3%, the viability, T/C [39] was 31% and the viability, T/C [40] was 22%. The viability, T/C [15] was 79.8%, the viability, T/C [16] was 79.4% and the viability, T/C [17] was 51.4%. It also gave a viability, T/C [18] of 44.3%, a viability, T/C [41] of 27.7% and a viability, T/C [42] of 16.7%. It also gave a viability, T/C [21] of 47.4%, a viability, T/C [22] of 40.3% and a viability, T/C [23] of 52.8%. It also gave a viability, T/C [24] of 31.2%, a viability, T/C [43] of 20.6% and a viability, T/C [44] of 13.2%. The viability, T/C [27] was 42.6%, the viability, T/C [28] was 25% and the viability, T/C [29] was 38.6%. For the same compound, the viability, T/C [30] was 26.1%, the viability, T/C [45] was 16.8% and the viability, T/C [46] was 11.8%. It also gave a viability, T/C [33] of 36.2%, a viability, T/C [34] of 24.6% and a viability, T/C [35] of 35.9%. The viability, T/C [36] was 22.1%, the viability, T/C [47] was 12.2% and the viability, T/C [48] was 13.2%.
